From patent US20240101576A1, “HETEROCYCLIC INHIBITORS OF EGFR AND/OR HER2, FOR USE IN THE TREATMENT OF CANCER” (Scorpion Therapeutics, Inc., priority 2020, published 2024)

Key:
Type in all cases: cell-based
[1] = target: T1, EGFR exon 19del (Ba/F3 cells) (Homo sapiens, UniProt P00533); test: Inhibitor activity on EGFR-dependent cell growth (CellTiter-Glo, 72 h), Ba/F3 EGFR exon 19del; settings: Ba/F3 EGFR exon 19del cell growth, read-out: BaF3 Del19 IC50
Method in brief: (§1)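 Compounds, serially diluted 3-fold over 10 points in DMSO and added at 120 nL per well, act on Ba/F3 EGFR-mutant cells for 72 h. Seeding is 800 (exon 19del, FQEA), 600 (L858R/C797S) or 400 (L858R) cells/well. CTG luminescence is fitted with a four-parameter logistic curve to give IC50.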

EGFR L858R (Ba/F3 cells) [2] = target: T2, EGFR L858R (Ba/F3 cells) (Homo sapiens, UniProt P00533, L858R); test: Inhibitor activity on EGFR-dependent cell growth (CellTiter-Glo, 72 h), Ba/F3 EGFR L858R; settings: read-out: BaF3 L858R IC50
T2 construct: expressed in transfected cells; host or cells: Ba/F3 (murine pro-B cells), retroviral transduction, puromycin selection, IL3-independent pool
Method in brief: as §1

EGFR WT (Ba/F3 cells) = target: T3, EGFR WT (Ba/F3 cells) (Homo sapiens, UniProt P00533); test: Inhibitor activity on EGFR-dependent cell growth (CellTiter-Glo, 72 h), Ba/F3 EGFR WT; settings: read-out: BaF3 WT IC50
T3 construct: expressed in transfected cells; host or cells: Ba/F3 (murine pro-B cells), retroviral transduction, puromycin selection, maintained with EGF
Method in brief: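 This growth assay used Ba/F3 cells that depend on wild-type EGFR and are kept in EGF without IL3. Compounds were made up as 10 mM DMSO stocks and diluted 3-fold over 10 points. 120 nL went onto 600 cells/well. After 72 hours, 40 μL CellTiter-Glo was added and luminescence read on EnVision after 30 min.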

[3] = target: T4, EGFR exon 20 NPG Ins D770_N771 (Ba/F3 cells) (Homo sapiens, UniProt P00533, INS770NPG); test: Inhibitor activity on EGFR-dependent cell growth (CellTiter-Glo, 72 h), Ba/F3 EGFR exon 20 NPG Ins; settings: read-out: BaF3 NPG IC50
T4 construct: expressed in transfected cells; host or cells: Ba/F3 (murine pro-B cells), retroviral transduction, puromycin selection, IL3-independent pool
Method in brief: (§2)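 IC50s derive from a sigmoidal dose–response fit of CellTiter-Glo signal. The signal was normalised between […]-treated cells and cell-free medium. Ba/F3 mutant-EGFR cells, seeded at 400–800/well depending on the line, had 72 h of exposure to a 10-point, 3-fold compound series.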

[4] = target: T5, EGFR exon 20 ASV Ins V769_D770 (Ba/F3 cells) (Homo sapiens, UniProt P00533, INS769ASV); test: Inhibitor activity on EGFR-dependent cell growth (CellTiter-Glo, 72 h), Ba/F3 EGFR exon 20 ASV Ins; settings: read-out: BaF3 ASV IC50
T5 construct: expressed in transfected cells; host or cells: Ba/F3 (murine pro-B cells), retroviral transduction, puromycin selection, IL3-independent pool
T5 sequence (P00533 with tags, fused parts or gaps INS769ASV): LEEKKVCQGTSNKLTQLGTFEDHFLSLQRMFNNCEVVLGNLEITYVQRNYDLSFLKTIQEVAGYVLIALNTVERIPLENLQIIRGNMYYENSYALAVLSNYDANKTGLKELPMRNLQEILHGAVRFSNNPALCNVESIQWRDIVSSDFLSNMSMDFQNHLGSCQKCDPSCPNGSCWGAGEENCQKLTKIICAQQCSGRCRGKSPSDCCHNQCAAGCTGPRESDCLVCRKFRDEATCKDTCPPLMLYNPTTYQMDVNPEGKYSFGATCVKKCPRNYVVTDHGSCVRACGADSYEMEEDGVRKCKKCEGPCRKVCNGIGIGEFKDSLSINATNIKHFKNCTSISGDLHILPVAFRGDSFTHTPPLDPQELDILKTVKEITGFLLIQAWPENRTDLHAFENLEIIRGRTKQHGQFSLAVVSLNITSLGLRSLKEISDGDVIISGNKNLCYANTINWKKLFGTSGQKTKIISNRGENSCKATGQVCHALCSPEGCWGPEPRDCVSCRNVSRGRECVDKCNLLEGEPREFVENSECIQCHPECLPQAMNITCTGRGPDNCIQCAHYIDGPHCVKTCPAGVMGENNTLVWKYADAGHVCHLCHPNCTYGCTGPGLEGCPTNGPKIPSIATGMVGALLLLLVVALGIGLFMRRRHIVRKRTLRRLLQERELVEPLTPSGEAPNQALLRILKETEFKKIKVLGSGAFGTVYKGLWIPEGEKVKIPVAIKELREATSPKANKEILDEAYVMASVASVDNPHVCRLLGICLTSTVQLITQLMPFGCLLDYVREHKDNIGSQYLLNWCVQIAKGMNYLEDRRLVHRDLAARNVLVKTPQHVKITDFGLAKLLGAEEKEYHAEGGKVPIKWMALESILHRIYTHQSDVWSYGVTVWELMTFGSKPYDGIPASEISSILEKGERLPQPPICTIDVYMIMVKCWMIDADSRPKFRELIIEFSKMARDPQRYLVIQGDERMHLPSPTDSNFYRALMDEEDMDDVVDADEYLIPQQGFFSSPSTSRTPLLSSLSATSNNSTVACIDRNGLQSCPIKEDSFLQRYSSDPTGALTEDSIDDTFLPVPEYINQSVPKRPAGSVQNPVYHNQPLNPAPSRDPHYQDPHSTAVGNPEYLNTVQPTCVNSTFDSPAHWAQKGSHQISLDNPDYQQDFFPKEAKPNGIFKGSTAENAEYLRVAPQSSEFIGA
Method in brief: as §2

EGFR L858R (Ba/F3 cells) [5] = target: T2, EGFR L858R (Ba/F3 cells); test: Inhibitor activity on EGFR phosphorylation (pEGFR AlphaLISA, 2 h), Ba/F3 EGFR L858R
Description: (§3) Example B. Inhibitor Activity on EGFR phosphorylation (pEGFR)
(§4) EGFR mutant Ba/F3 cells were generated by transduction with retrovirus containing vectors expressing EGFR L858R, EGFR exon 19del, EGFR L858R/C797S, EGFR exon 20 NPG Ins D770_N771, EGFR exon 20 ASV Ins V769_D770, or EGFR exon 20 SVD Ins D770_N771 genes along with a puromycin selection marker. Transduced cells are selected with puromycin for 7 days and are then be transferred into culture media without Interleukin 3 (IL3). Surviving cells are confirmed to express EGFR by Western blot and maintained as a pool. CUTO14 cells were obtained from Dr. Robert C. Doebele at the University of Colorado. The IC50 date are included in Table 6 and Table 7.
(§5) 1.1 Cells are harvested from flask into cell culture medium and the cell number counted.
(§6) 1.2 Cells are diluted with culture medium to the desired density and 40 μL of cell suspension is added into each well of 384-well cell culture plate and the seeding density is 50K cells/well (Ba/F3) or 12.5K cells/well (CUTO14).
(§7) 2 Compound Preparation and Treatment
(§8) 2.1 Test compounds are dissolved to 10 mM in a DMSO stock solution. 45 μL of stock solution is transferred to a 384 polypropylene plate (pp-plate). Perform 3-fold, 10-point dilution via transferring 15 μL compound into 30 μL DMSO using a TECAN (EVO200) liquid handler.
(§9) 2.2 Spin plates at room temperature at 1,000 RPM for 1 minute.
(§10) 2.3 Transfer 5 nL of diluted compound from compound source plate into the cell plate.
(§11) 2.4 After compound treatment for 2 hours, perform pEGFR detection by AlphaLISA for compound treatment plates as described in “Detection” section.
(§12) 3 Detection by pEGFR AlphaLISA (Perkin-Elmer)
(§13) 3.1 Plates are removed from incubators and equilibrated at room temperature for 10 minutes, and media was removed
(§14) 3.2 10 μL of lysis buffer is added and plates shaken at 600 rpm for 1 hr.
(§15) 3.3 Prepare acceptor mix just before use and dispense 5 μL of acceptor mix to all the wells. Shake 350 rpm for Ihr in the dark
(§16) 3.4 Prepare donor mix under low light conditions prior to use. Dispense 5 μL of donor mix to all the wells. Mix well on the shaker, seal and wrap in aluminum foil and incubate 1.5 hrs at room temperature in the dark
(§17) 3.5 Transfer 18.5 μL mixture to OptiPlate 384, and read using an Envision. The IC50 date were included in Table 6 and Table 7.

[6] = target: T1, EGFR exon 19del (Ba/F3 cells); test: Inhibitor activity on EGFR phosphorylation (pEGFR AlphaLISA, 2 h), Ba/F3 EGFR exon 19del; settings: read-out: Del19 IC50 (pEGFR)
Description: as §3, §4, §5, §6, §7, §8, §9, §10, §11, §12, §13, §14, §15, §16, §17

[7] = target: T6, EGFR L858R/C797S (Ba/F3 cells) (Homo sapiens, UniProt P00533, C797S/L858R); test: Inhibitor activity on EGFR phosphorylation (pEGFR AlphaLISA, 2 h), Ba/F3 EGFR L858R/C797S
T6 construct: expressed in transfected cells; host or cells: Ba/F3 (murine pro-B cells), retroviral transduction, puromycin selection, IL3-independent pool
T6 sequence (P00533 25-1210 C797S/L858R): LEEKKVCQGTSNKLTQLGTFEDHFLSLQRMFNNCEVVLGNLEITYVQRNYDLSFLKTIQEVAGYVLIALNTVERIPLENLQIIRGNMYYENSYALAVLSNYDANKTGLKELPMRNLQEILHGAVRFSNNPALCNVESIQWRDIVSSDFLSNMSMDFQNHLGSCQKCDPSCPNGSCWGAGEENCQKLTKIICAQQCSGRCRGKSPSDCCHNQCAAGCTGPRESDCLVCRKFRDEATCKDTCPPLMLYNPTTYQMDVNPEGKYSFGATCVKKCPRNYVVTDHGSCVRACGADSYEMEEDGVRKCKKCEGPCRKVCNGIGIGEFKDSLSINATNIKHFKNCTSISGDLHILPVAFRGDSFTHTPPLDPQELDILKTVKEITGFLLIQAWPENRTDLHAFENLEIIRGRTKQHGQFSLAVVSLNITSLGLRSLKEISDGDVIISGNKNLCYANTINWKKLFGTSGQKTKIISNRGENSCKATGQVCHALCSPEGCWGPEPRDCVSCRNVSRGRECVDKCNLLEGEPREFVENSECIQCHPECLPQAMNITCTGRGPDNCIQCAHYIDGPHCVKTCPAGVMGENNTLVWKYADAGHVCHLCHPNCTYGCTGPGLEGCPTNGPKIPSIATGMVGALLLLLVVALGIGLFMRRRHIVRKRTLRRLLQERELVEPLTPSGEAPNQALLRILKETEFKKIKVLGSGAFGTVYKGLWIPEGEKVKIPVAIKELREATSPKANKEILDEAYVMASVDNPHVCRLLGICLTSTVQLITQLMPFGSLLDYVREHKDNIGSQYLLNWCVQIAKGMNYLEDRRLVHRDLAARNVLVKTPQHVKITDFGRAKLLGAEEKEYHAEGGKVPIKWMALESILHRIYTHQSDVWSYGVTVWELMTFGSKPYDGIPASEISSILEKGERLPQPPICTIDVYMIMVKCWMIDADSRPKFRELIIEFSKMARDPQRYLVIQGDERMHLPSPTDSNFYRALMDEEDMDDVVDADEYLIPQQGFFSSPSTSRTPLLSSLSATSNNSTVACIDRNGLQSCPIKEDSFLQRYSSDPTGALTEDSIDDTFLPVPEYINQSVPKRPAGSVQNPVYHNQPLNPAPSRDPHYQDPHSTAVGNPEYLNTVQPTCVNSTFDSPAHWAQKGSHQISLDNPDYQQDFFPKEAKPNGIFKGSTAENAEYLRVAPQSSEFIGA
Description: as §3, §4, §5, §6, §7, §8, §9, §10, §11, §12, §13, §14, §15, §16, §17

[8] = target: T6, EGFR L858R/C797S (Ba/F3 cells); test: Inhibitor activity on EGFR-dependent cell growth (CellTiter-Glo, 72 h), Ba/F3 EGFR L858R/C797S; settings: read-out: BaF3 L858R/C797S IC50
Description: Example A. Inhibitor Activity on EGFR-Dependent Cell Growth
Cell lines are generated by transducing Ba/F3 cells with retroviruses containing vectors with EGFR WT, EGFR L858R, EGFR exon 19del, EGFR L858R/C797S, EGFR exon 20 NPG Ins D770_N771, EGFR exon 20 ASV Ins V769_D770, EGFR exon 20 SVD Ins D770_N771, or EGFR exon 20 FQEA Ins A763_V764 genes and a puromycin selection marker. Transduced cells are selected with puromycin for 7 days and are then be transferred into culture media without Interleukin 3 (IL3). EGFR WT cells are maintained with supplemental EGF. Surviving cells are confirmed to express EGFR by Western blot and maintained as a pool. The IC50 date were included in Table 6 and Table 7.
as §5
1.2 Cells are diluted with culture medium to the desired density and 40 μL of cell suspension is added into each well of 384-well cell culture plate and the seeding density is 800 (FQEA, exon 19del), 600 (WT, NPG, L858R/C797S), or 400 (ASV, SVD, L858R) cells/well.
as §7, §8, §9
2.3 Transfer 120 nL of diluted compound from compound source plate into the cell plate.
2.4 After compound treatment for 72 hours, perform CTG detection for compound treatment plates as described in “Detection” section.
3.1 Plates are removed from incubators and equilibrated at room temperature for 15 minutes.
3.2 Thaw the CellTiter Glo reagents and allow to equilibrate to room temperature before the experiment.
3.3 Add 40 μL of CellTiter-Glo reagent into each well (at 1:1 to culture medium). Then place the plates at room temperature for 30 min followed by reading on EnVision.
4.1 Inhibition activity is calculated following the formula below:
% Inhibition=100×(LumHC−LumSample)/(LumHC−LumLC) • where HC is obtained from cells treated with 0.1% DMSO only; and LC is obtained from culture medium only.
4.2 2. Calculate the IC50 by fitting the Curve using Xlfit (v5.3.1.3), equation 201.
Y=Bottom+(Top−Bottom)/(1+10^((Log IC50−X)*HillSlope))

[9] = target: T7, EGFR exon 20 SVD Ins D770_N771 (Ba/F3 cells) (Homo sapiens, UniProt P00533, INS770SVD); test: Inhibitor activity on EGFR-dependent cell growth (CellTiter-Glo, 72 h), Ba/F3 EGFR exon 20 SVD Ins; settings: read-out: BaF3 SVD IC50
T7 construct: expressed in transfected cells; host or cells: Ba/F3 (murine pro-B cells), retroviral transduction, puromycin selection, IL3-independent pool
Method in brief: as §2

[10] = target: T8, EGFR exon 20 FQEA Ins A763_V764 (Ba/F3 cells) (Homo sapiens, UniProt P00533, INS763FQEA); test: Inhibitor activity on EGFR-dependent cell growth (CellTiter-Glo, 72 h), Ba/F3 EGFR exon 20 FQEA Ins; settings: read-out: BaF3 FQEA IC50
T8 construct: expressed in transfected cells; host or cells: Ba/F3 (murine pro-B cells), retroviral transduction, puromycin selection, IL3-independent pool
T8 sequence (P00533 with tags, fused parts or gaps INS763FQEA): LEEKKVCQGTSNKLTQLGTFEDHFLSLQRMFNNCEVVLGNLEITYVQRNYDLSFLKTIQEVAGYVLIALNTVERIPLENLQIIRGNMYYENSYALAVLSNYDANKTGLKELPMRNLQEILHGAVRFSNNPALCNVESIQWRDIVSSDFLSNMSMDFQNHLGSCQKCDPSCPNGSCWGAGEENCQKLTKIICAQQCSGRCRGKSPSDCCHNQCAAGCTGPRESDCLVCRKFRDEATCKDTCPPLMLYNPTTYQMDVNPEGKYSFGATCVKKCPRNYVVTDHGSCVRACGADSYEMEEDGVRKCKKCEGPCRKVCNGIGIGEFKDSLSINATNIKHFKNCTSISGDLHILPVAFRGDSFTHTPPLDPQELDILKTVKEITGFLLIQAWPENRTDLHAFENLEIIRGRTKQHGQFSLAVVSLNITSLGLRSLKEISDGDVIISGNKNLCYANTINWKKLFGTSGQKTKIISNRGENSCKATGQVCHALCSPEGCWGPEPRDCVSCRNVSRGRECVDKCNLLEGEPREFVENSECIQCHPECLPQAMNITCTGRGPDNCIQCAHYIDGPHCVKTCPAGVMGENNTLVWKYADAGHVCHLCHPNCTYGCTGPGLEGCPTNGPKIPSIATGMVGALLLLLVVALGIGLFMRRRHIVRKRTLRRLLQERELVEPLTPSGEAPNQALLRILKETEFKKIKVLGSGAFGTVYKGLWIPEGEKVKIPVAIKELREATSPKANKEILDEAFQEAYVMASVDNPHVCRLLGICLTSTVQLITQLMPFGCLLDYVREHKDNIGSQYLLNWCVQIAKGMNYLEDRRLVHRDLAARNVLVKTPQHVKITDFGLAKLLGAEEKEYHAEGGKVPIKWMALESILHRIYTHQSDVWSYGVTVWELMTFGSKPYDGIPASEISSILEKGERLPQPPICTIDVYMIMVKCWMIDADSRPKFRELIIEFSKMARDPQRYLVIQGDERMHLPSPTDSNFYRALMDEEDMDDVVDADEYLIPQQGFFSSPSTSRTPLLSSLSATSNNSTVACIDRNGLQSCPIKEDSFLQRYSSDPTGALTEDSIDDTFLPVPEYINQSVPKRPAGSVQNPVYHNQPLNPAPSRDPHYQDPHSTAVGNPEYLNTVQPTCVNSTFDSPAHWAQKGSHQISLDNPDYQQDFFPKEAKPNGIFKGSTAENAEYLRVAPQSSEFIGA
Method in brief: as §1

T1 sequence (P00533 with tags, fused parts or gaps DEL746-750): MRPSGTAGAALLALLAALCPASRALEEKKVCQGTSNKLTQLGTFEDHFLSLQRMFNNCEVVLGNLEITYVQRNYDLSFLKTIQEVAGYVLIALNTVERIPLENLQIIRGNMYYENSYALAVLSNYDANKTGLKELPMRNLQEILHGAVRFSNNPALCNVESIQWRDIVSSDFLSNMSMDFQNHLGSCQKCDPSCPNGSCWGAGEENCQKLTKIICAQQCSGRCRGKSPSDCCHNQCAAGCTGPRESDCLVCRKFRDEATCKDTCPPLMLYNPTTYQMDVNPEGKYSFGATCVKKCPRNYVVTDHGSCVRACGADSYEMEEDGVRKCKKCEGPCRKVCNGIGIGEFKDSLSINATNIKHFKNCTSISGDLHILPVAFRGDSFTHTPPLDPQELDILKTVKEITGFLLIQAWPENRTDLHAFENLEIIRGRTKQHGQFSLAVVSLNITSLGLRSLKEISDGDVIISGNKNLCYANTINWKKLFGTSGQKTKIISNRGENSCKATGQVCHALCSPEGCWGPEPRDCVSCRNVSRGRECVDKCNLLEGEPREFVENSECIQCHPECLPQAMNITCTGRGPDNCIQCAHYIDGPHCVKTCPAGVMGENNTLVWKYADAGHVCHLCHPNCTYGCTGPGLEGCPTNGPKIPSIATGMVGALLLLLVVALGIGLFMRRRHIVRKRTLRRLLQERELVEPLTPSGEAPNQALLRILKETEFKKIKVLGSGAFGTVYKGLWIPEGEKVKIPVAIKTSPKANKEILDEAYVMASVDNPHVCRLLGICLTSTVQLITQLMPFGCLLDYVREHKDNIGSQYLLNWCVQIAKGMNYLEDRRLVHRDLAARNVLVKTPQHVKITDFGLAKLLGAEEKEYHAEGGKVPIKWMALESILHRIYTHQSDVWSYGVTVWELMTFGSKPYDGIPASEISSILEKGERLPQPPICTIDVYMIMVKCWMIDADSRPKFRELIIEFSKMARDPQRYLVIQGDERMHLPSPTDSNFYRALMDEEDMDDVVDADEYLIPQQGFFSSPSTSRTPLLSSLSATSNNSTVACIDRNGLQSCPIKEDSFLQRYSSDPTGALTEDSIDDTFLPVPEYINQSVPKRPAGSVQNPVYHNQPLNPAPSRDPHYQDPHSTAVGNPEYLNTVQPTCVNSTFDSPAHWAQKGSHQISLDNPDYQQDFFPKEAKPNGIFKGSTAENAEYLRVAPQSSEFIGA

Row | Compound | IC50 [1] [nM] | IC50 (EGFR L858R (Ba/F3 cells) [2]) [nM] | IC50 (EGFR WT (Ba/F3 cells)) [nM] | IC50 [3] [nM] | IC50 [4] [nM] | IC50 (EGFR L858R (Ba/F3 cells) [5]) [nM] | IC50 [6] [nM] | IC50 [7] [nM] | IC50 [8] [nM] | IC50 [9] [nM] | IC50 [10] [nM]
1 | COc1c(F)cccc1Nc1c(-c2ccncn2)[nH]c2c1C(=O)NCC2C[C@H]1COCCO1 (single isomer, unassigned) [Compound 530, (7R*)-7-[(2S)-1,4-dioxan-2-ylmethyl]-3-[(3-fluoro-2-methoxyphenyl)amino]-2-(pyrimidin-4-yl)-1H,5H,6H,7H-pyrrolo[3,2-c]pyridin-4-one] | < 100 | < 100 | 100 to 1000 | < 100 | < 100 | < 100 | < 100 | < 100 | < 100 | < 100 | –
2 | COc1c(Cl)cccc1Nc1c(-c2ccncc2F)[nH]c2c1C(=O)NC[C@@H]2CC(F)F [Compound 819, (7S)-3-[(3-chloro-2-methoxyphenyl)amino]-7-(2,2-difluoroethyl)-2-(3-fluoropyridin-4-yl)-1H,5H,6H,7H-pyrrolo[3,2-c]pyridin-4-one] | < 100 | < 100 | > 1000 | – | 100 to 1000 | < 100 | < 100 | < 100 | < 100 | 100 to 1000 | 100 to 1000
3 | COc1ncc2nccc(-c3[nH]c4c(c3Nc3cccc(F)c3C)C(=O)NCC4)c2n1 [Compound 794, 3-[(3-fluoro-2-methylphenyl)amino]-2-[2-methoxypyrido[3,2-d]pyrimidin-8-yl]-1H,5H,6H,7H-pyrrolo[3,2-c]pyridin-4-one] | < 100 | < 100 | 100 to 1000 | – | < 100 | < 100 | < 100 | < 100 | < 100 | < 100 | < 100
4 | COc1ncc2nccc(-c3[nH]c4c(c3Nc3cccc(F)c3OC)C(=O)NCC4)c2n1 [compound 409] | < 100 | < 100 | 100 to 1000 | – | < 100 | < 100 | < 100 | < 100 | < 100 | < 100 | < 100
5 | COc1c(Cl)cccc1Nc1c(-c2ccncc2F)[nH]c2c1C(=O)NC[C@H]2CC(F)F [Compound 820, (7R)-3-[(3-chloro-2-methoxyphenyl)amino]-7-(2,2-difluoroethyl)-2-(3-fluoropyridin-4-yl)-1H,5H,6H,7H-pyrrolo[3,2-c]pyridin-4-one] | < 100 | < 100 | > 1000 | – | 100 to 1000 | < 100 | < 100 | < 100 | < 100 | 100 to 1000 | 100 to 1000
6 | COc1c(Cl)cccc1Nc1c(-c2ccncc2F)[nH]c2c1C(=O)NC[C@@]21CCN(CC(F)F)C1 [compound 822] | < 100 | < 100 | > 1000 | – | 100 to 1000 | < 100 | < 100 | < 100 | < 100 | < 100 | 100 to 1000
7 | COc1c(F)cccc1Nc1c(-c2ccnc3ccc(C)nc23)[nH]c2c1C(=O)NCC2 [Compound 809, 3-[(3-fluoro-2-methoxyphenyl)amino]-2-(6-methyl-1,5-naphthyridin-4-yl)-1H,5H,6H,7H-pyrrolo[3,2-c]pyridin-4-one] | < 100 | < 100 | 100 to 1000 | – | < 100 | < 100 | < 100 | < 100 | < 100 | < 100 | < 100
